Experimental data: patent US20260265238A1, “COMPOUNDS AND PHARMACEUTICAL COMPOSITIONS THAT DEGRADE SWI/SNF-RELATED MATRIX-ASSOCIATED ACTIN-DEPENDENT REGULATOR OF CHROMATIN SUBFAMILY A” (Plexium, Inc., priority 2023, published 2026)

What was measured:
[1] = biological target: T1, SMARCA2-HiBiT HeLa cells (protein which is expressed from the SMARCA2 gene) (Homo sapiens, UniProt P51531); test: SMARCA2 degradation assay (HiBiT-fusion HeLa cell line, 24 h, luminescence); type: cell-based
T1 construct: protein which is expressed from the SMARCA2 and SMARCA4 genes; host or cells: HeLa (SMARCA2-HiBiT engineered line)
Summary of the method: (§1)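 In this 24-hour cellular degradation readout, HiBiT-tagged HeLa lines received compound at up to typically 10 μM down to 300 pM in 10 points. After lysis with LgBiT and substrate, luminescence signals were used to build dose-response curves for DC50.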

[2] = biological target: T2, SMARCA4-HiBiT HeLa cells (protein which is expressed from the SMARCA4 gene) (Homo sapiens, UniProt P51532); test: SMARCA4 degradation assay (HiBiT-fusion HeLa cell line, 24 h, luminescence); type: cell-based
T2 construct: protein which is expressed from the SMARCA2 and SMARCA4 genes; host or cells: HeLa (SMARCA4-HiBiT engineered line)
Summary of the method: as §1

T2 sequence (P51532 whole entry, the tested form may be a part): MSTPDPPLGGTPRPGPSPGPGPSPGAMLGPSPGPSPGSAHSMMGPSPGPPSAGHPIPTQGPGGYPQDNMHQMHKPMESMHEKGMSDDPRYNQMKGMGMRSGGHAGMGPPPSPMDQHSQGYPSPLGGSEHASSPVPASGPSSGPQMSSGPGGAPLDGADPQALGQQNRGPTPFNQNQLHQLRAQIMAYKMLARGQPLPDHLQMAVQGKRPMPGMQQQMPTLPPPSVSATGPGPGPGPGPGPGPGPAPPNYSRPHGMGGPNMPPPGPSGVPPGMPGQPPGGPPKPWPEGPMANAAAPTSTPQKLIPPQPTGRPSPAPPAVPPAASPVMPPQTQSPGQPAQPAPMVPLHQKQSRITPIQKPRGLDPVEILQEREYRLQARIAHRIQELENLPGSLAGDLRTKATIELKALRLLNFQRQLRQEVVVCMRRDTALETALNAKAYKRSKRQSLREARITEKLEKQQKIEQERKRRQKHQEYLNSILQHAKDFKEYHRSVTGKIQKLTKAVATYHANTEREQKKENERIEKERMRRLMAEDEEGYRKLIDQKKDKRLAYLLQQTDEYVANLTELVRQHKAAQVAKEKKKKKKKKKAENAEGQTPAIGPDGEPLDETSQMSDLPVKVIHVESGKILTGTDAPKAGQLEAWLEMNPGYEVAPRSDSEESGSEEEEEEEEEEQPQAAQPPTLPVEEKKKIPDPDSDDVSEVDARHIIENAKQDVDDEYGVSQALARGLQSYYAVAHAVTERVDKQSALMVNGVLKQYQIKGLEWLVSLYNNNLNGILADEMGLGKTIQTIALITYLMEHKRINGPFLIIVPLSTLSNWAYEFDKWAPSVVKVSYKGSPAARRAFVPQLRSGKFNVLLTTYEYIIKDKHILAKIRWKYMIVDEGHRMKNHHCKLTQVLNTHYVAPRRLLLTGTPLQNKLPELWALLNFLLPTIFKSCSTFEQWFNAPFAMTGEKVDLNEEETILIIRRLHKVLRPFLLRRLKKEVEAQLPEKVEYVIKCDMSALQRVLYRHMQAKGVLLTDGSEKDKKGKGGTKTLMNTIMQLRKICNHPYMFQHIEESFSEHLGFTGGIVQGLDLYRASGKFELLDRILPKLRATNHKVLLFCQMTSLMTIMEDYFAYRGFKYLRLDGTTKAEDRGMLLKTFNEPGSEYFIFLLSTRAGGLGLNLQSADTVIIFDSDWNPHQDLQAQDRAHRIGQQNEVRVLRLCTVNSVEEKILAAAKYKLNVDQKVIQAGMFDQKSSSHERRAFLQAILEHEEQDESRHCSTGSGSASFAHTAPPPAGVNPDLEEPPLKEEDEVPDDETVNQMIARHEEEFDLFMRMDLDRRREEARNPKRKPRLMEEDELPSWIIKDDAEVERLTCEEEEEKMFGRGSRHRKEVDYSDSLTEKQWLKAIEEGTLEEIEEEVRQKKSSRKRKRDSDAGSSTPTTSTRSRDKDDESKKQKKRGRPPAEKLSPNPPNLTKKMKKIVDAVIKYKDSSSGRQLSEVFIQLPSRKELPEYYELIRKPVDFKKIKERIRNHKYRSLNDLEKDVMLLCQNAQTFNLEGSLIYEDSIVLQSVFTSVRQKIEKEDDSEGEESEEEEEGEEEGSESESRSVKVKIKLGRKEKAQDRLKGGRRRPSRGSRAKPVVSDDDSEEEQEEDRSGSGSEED
T1 sequence (P51531 whole entry, the tested form may be a part): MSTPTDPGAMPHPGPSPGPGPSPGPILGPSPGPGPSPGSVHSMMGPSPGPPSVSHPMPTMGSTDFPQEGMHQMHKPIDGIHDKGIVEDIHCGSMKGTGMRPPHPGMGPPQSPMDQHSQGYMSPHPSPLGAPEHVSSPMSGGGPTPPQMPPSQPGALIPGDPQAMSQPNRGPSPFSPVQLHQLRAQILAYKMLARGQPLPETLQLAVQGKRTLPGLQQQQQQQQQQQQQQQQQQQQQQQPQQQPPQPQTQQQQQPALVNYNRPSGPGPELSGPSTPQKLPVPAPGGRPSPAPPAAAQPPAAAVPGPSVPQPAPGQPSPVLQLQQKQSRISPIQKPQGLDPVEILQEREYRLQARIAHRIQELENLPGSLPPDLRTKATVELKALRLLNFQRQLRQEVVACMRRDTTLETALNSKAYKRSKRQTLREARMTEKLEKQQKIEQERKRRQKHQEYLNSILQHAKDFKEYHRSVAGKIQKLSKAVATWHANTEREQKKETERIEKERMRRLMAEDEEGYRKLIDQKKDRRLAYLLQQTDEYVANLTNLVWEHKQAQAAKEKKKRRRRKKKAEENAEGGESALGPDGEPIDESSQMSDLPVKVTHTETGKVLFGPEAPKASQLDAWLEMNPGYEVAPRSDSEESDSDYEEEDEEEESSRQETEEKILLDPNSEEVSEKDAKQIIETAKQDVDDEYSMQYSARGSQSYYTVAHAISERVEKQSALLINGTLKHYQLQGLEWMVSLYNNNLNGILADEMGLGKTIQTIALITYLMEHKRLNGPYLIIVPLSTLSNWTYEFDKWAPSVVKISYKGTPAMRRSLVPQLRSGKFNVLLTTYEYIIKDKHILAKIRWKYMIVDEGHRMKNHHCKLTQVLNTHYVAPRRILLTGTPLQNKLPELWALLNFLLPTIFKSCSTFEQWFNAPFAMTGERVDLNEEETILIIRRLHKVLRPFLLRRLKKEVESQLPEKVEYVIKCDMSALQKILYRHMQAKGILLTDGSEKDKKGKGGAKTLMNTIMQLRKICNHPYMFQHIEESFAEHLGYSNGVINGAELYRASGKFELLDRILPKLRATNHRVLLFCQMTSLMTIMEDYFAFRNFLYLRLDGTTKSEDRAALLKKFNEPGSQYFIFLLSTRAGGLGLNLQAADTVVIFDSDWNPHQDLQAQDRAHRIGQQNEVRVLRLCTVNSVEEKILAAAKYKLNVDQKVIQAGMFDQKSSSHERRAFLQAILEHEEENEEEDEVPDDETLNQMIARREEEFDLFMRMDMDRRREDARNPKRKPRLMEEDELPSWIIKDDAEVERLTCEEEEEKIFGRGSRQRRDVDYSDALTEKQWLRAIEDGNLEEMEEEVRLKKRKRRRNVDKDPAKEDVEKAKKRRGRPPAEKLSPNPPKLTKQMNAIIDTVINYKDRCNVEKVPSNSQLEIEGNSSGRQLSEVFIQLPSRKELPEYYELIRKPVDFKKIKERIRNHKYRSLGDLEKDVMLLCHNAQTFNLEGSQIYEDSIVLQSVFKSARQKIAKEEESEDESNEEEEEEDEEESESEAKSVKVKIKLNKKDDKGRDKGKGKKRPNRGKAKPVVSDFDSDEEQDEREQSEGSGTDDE

Row | DC50 [1] [nM] | SMARCA2 % Degradation @ 1 μM ([1]; @ 1 μM) | DC50 [2] [nM] | inhibition at 1 µM ([2]; @ 1 μM) [%] | SMARCA2 % Degradation @ 1 μM ([1]; 1 μM) | inhibition at 1 µM ([2]; 1 μM) [%] | Structure (SMILES)
1 | 500 to 5000 | ?? | 500 to 5000 | 30 to 70 |  |  | CNc1cc(N2CCCN(c3cc(-c4ccccc4O)nnc3N)CC2)nc(C#CCNC(=O)c2nn(C)c(C)c2C)n1 [Compound P-141, N-(3-(4-(4-(3-amino-6-(2-hydroxyphenyl)pyridazin-4-yl)-1,4-diazepan-1-yl)-6-(methylamino)pyrimidin-2-yl)prop-2-yn-1-yl)-1,4,5-trimethyl-1H-pyrazole-3-carboxamide]
2 | 50 to 500 | ++ (++=30-70%) | < 50 | 30 to 70 |  |  | Nc1nnc(-c2ccccc2O)cc1N1CCN(c2ccnc(C#CCNC(=O)c3cc4n(n3)CCCC4)n2)CC1 [Compound P-69, N-(3-(4-(4-(3-amino-6-(2-hydroxyphenyl)pyridazin-4-yl)piperazin-1-yl)pyrimidin-2-yl)prop-2-yn-1-yl)-4,5,6,7-tetrahydropyrazolo[1,5-a]pyridine-2-carboxamide]
3 | 50 to 500 |  | 50 to 500 |  | +++ (+++=>70%) | > 70 | C[C@@H]1CCN(c2cc(-c3ccccc3O)nnc2N)CCN1c1ccnc(C#C[C@@H](C)O)c1 [Compound P-401, 0-{5-[(R)-4-{2-[(R)-3-hydroxy-1-butynyl]-4-pyridyl}-5-methyl-1,4-diazepan-1-yl]-6-amino-3-pyridazinyl}phenol]
4 | 50 to 500 | ++ (++=30-70%) | 500 to 5000 | < 30 |  |  | C[C@H]1COCCN1CC#Cc1nccc(N2CCCN(c3cc(-c4ccccc4O)nnc3N)CC2)n1 [Compound P-316, 0-{5-[4-(2-{3-[(S)-3-methyl-4-morpholinyl]-1-propynyl}-4-pyrimidinyl)-1,4-diazepan-1-yl]-6-amino-3-pyridazinyl}phenol]
5 | 50 to 500 | ++ (++=30-70%) | 50 to 500 | 30 to 70 |  |  | Nc1nnc(-c2ccccc2O)cc1N1CC2CN(c3ccnc(C#CCNC(=O)c4cc5ncccn5n4)n3)CC2C1 (stereo not drawn) [Compound P-41, N-(3-(4-(5-(3-amino-6-(2-hydroxyphenyl)pyridazin-4-yl)hexahydropyrrolo[3,4-c]pyrrol-2(1H)-yl)pyrimidin-2-yl)prop-2-yn-1-yl)pyrazolo[1,5-a]pyrimidine-2-carboxamide]
6 | 500 to 5000 | ++ (++=30-70%) | 500 to 5000 | < 30 |  |  | C[C@@H]1CCN(c2cc(-c3ccccc3O)nnc2N)CCN1c1ccnc(C#CC23CCC(C2)N3)n1 (stereo partly drawn) [Compound P-196, o-{5-[(R)-4-(2-{2-(5-azabicyclo[2.1.1]hex-1-yl)ethynyl}-4-pyrimidinyl)-5-methyl-1,4-diazepan-1-yl]-6-amino-3-pyridazinyl}phenol]
7 | 50 to 500 | ++ (++=30-70%) | 50 to 500 | < 30 |  |  | C[C@@H]1CCN(c2cc(-c3ccccc3O)nnc2N)CCN1c1ccnc(C#CCN2CC(F)(F)[C@H]2C)n1 [Compound P-271, 0-{5-[(R)-4-(2-{3-[(R)-3,3-difluoro-2-methyl-1-azetidinyl]-1-propynyl}-4-pyrimidinyl)-5-methyl-1,4-diazepan-1-yl]-6-amino-3-pyridazinyl}phenol]
8 | 500 to 5000 | ++ (++=30-70%) | 500 to 5000 | < 30 |  |  | CC(=O)NCC#Cc1nccc(N2CCCN(c3cc(-c4ccccc4O)nnc3N)CC2)n1 [Compound P-122, N-(3-(4-(4-(3-amino-6-(2-hydroxyphenyl)pyridazin-4-yl)-1,4-diazepan-1-yl)pyrimidin-2-yl)prop-2-yn-1-yl)acetamide]
9 | < 50 | +++ (+++=>70%) | 50 to 500 | 30 to 70 |  |  | Nc1nnc(-c2ccccc2O)cc1N1CCCN(c2ccnc(C#CCn3ccn4nccc4c3=O)n2)CC1 [Compound P-109, 5-(3-(4-(4-(3-amino-6-(2-hydroxyphenyl)pyridazin-4-yl)-1,4-diazepan-1-yl)pyrimidin-2-yl)prop-2-yn-1-yl)pyrazolo[1,5-a]pyrazin-4(5H)-one]
10 | 50 to 500 | ++ (++=30-70%) | < 50 | 30 to 70 |  |  | Nc1nnc(-c2ccccc2O)cc1N1CCN(c2ccnc(C#CCNC(=O)c3cc4ncccn4n3)n2)C2CC21 (stereo not drawn) [Compound P-28, N-(3-(4-(5-(3-amino-6-(2-hydroxyphenyl)pyridazin-4-yl)-2,5-diazabicyclo[4.1.0]heptan-2-yl)pyrimidin-2-yl)prop-2-yn-1-yl)pyrazolo[1,5-a]pyrimidine-2-carboxamide]
11 | 50 to 500 | ++ (++=30-70%) | < 50 | 30 to 70 |  |  | Cc1c(C(=O)NCC#Cc2nccc(N3CCN(c4cc(-c5ccccc5O)nnc4N)CC3)n2)nn(C)c1C [Compound P-8, N-[3-(4-{4-[3-amino-6-(2-hydroxyphenyl)pyridazin-4-yl]piperazin-1-yl}pyrimidin-2-yl)prop-2-yn-1-yl]-1,4,5-trimethyl-1H-pyrazole-3-carboxamide]
12 | 50 to 500 |  | 50 to 500 |  | ++ (++=30-70%) | 30 to 70 | C[C@@H]1CCN(c2cc(-c3ccccc3O)nnc2N)CCN1c1ccnc(C#CCN2C[C@@H]3C[C@H]2CO3)c1 [Compound P-404, 0-{5-[(R)-4-[2-(3-{(1S,4S)-2-oxa-5-azabicyclo[2.2.1]hept-5-yl}-1-propynyl)-4-pyridyl]-5-methyl-1,4-diazepan-1-yl]-6-amino-3-pyridazinyl}phenol]
13 | 50 to 500 | +++ (+++=>70%) | 50 to 500 | 30 to 70 |  |  | C[C@@H]1CCN(c2cc(-c3ccccc3O)nnc2N)CCN1c1ccnc(C#CCNC(=O)c2cc3ncccn3n2)n1 [Compound P-14, (R)-N-(3-(4-(4-(3-amino-6-(2-hydroxyphenyl)pyridazin-4-yl)-7-methyl-1,4-diazepan-1-yl)pyrimidin-2-yl)prop-2-yn-1-yl)pyrazolo[1,5-a]pyrimidine-2-carboxamide]
14 | 50 to 500 | ++ (++=30-70%) | 50 to 500 | 30 to 70 |  |  | Cc1c(C(=O)NCC#Cc2nccc(N3CCN(c4cc(-c5ccccc5O)nnc4N)CC3)n2)oc2ccccc12 [Compound P-74, N-(3-(4-(4-(3-amino-6-(2-hydroxyphenyl)pyridazin-4-yl)piperazin-1-yl)pyrimidin-2-yl)prop-2-yn-1-yl)-3-methylbenzofuran-2-carboxamide]
15 | < 50 | ++ (++=30-70%) | < 50 | < 30 |  |  | Nc1nnc(-c2ccccc2O)cc1N1CCN(c2ccnc(C#CCN3CCCCC3)n2)CC1 [Compound P-280, 0-(6-amino-5-{4-[2-(3-piperidino-1-propynyl)-4-pyrimidinyl]-1-piperazinyl}-3-pyridazinyl)phenol]
16 | < 50 | +++ (+++=>70%) | 50 to 500 | 30 to 70 |  |  | C[C@@H]1CCN(c2cc(-c3ccccc3O)nnc2N)CCN1c1ccnc(C#CC2CN(C)C2)n1 [Compound P-192, o-{5-[(R)-5-methyl-4-{2-[2-(1-methyl-3-azetidinyl)ethynyl]-4-pyrimidinyl}-1,4-diazepan-1-y1]-6-amino-3-pyridaziny1} phenol]
17 | < 50 |  | < 50 |  | ++ (++=30-70%) | < 30 | CC(C#Cc1nc(N2CCN(c3cc(-c4ccccc4O)nnc3N)CC[C@H]2C)ccc1C#N)N(C)C (stereo partly drawn) [Compound P-407, 6-{(R)-4-[3-amino-6-(o-hydroxyphenyl)-4-pyridazinyl]-7-methyl-1,4-diazepan-1-yl}-2-[3-(dimethylamino)-1-butynyl]nicotinonitrile]
18 | 50 to 500 | ++ (++=30-70%) | 50 to 500 | 30 to 70 |  |  | C[C@H]1CN(c2cc(-c3ccccc3O)nnc2N)[C@@H](C)CN1c1ccnc(C#CCNC(=O)c2cc3ncccn3n2)n1 [Compound P-343, N-[3-(4-{(2S,5S)-4-[3-amino-6-(0-hydroxyphenyl)-4-pyridaziny1]-2,5-dimethyl-1-piperazinyl}-2-pyrimidinyl)-2-propynyl]-1,4,7a-triaza-2-indenecarboxamide]
19 | 50 to 500 | ++ (++=30-70%) | 50 to 500 | 30 to 70 |  |  | COCC1CN(CC#Cc2nccc(N3CCN(c4cc(-c5ccccc5O)nnc4N)CC[C@H]3C)n2)CCO1 (stereo partly drawn) [Compound P-161, o-{5-[(R)-4-(2-{3-[2-(methoxymethyl)-4-morpholinyl]-1-propynyl}-4-pyrimidinyl)-5-methyl-1,4-diazepan-1-yl]-6-amino-3-pyridazinyl}phenol]

Row | Structure (SMILES) | DC50 [1] [nM] | SMARCA2 % Degradation @ 1 μM ([1]; @ 1 μM) | DC50 [2] [nM] | inhibition at 1 µM ([2]; @ 1 μM) [%] | SMARCA2 % Degradation @ 1 μM ([1]; 1 μM) | inhibition at 1 µM ([2]; 1 μM) [%]
20 | Cc1nn2ccn(CC#Cc3nccc(N4CC5CCC(C4)N5c4cc(-c5ccccc5O)nnc4N)n3)c(=O)c2c1C [Compound P-282, 5-[3-(4-{8-[3-amino-6-(o-hydroxyphenyl)-4-pyridaziny1]-3,8-diazabicyclo[3.2.1]oct-3-yl}-2-pyrimidinyl)-2-propynyl]-2,3-dimethyl-1,5,7a-triaza-4(5H)-indenone] | 50 to 500 | ++ (++=30-70%) | 50 to 500 | 30 to 70 |  | 
21 | C[C@@H]1CCN(c2cc(-c3ccccc3O)nnc2N)CCN1c1ccnc(C#CCN2C3COCC2C3)n1 [Compound P-184, o-{5-[(R)-5-methyl-4-(2-{3-(3-oxa-6-azabicyclo[3.1.1]hept-6-yl)-1-propynyl}-4-pyrimidinyl)-1,4-diazepan-1-yl]-6-amino-3-pyridazinyl}phenol] | < 50 | +++ (+++=>70%) | < 50 | 30 to 70 |  | 
